# From patent publication US20080176787A1, “Parathyroid hormone analogues and methods of use” (priority 2005, published 2008)
# Like-named read-outs stand apart in the source and are kept apart here. Positions of bridges follow the written chain, without caps; N, C: chain ends. Residues, ends and D or L forms follow the SMILES beside them.
# Assay: Phase II pharmacokinetic evaluation of subcutaneous Ostabolin-C (Baseline and Week 12 subset)
# Type: in vivo, human
# Conditions: human, blood; for Cmax: read-out: Cmax
# Description: The objective of this portion of the study was to evaluate the pharmacokinetics of Ostabolin-C under steady state conditions when given subcutaneously (sc) once a day to post-menopausal female subjects with low bone mineral density.
# After Screening procedures and a 2-week placebo run-in phase, subjects were to be dosed once a day for 16 weeks with either Placebo or Ostabolin-C (7.5, 15, 30 or 45 μg). A subset of subjects from all treatment groups had blood collected for measurements of Ostabolin-C in order to determine PK parameters and compare them to prior studies.
# The full study duration of the study was 22 weeks, which included a 6-week screening period involving a 2-week placebo run-in and then 16 weeks of treatment. The subset of subjects for this component of the study was treated the same as all other subjects with the exception of the additional blood collections at baseline and Week 12.
# All of the values from the Placebo subject except one (Baseline 2 hour time-point) were below the assay level of detection (i.e., 10 pg/ml). With very limited exceptions, all values from Placebo subjects in prior trials have also been below the levels of detection. Thus, this one value was considered to be a laboratory error and PK parameters for this placebo subject were not calculated.
# No samples were obtained for Pre-dose at either Baseline or Week 12. In all prior studies, pre-treatment values have been below the levels of detection and 24-hour time points at doses of 40 ug and below have been below the levels of detection. Thus, no observable values were anticipated and for calculating PK the pre-treatment values for Baseline visit were set to zero.
# For pre-dose at Week 12, it was also anticipated that the values would be below the levels of detection based on prior studies and that the 24-hour post dose value would verify this. Only two 24-hour time-point values were above the level of detection; i.e. 24 hours post dosing at Baseline for Subject 030-003 and 24 hours post dosing at Week 12 for Subject 030-0004. The values of both of these 24-hour time-points were marginally above the assay level of detection. Also, both of these subjects had values below the levels of detection for both the 4 hour and 6 hour time-points after dosing on the prior day. Thus, these values are most likely artifacts and not real values. No valid 24 hour sample for subject 032-0001 at Week 12 was obtained. […] Thus, for calculating PK parameters, the Pre-dose values for Week 12 were also set to zero.
# The pharmacokinetic parameters that were estimated at Baseline and Week 12 are as follows:
# AUC values were estimated by a simple summation of trapezoidal areas from each time period. Data from each dose group were summarized using simple statistics on an Excel® spreadsheet; i.e., average (AVG) and Standard Deviation (STD). It should be noted that particularly with the lower doses and associated low blood levels and at late time points, those values just above versus just below the assay limits of detection can have a disproportionate impact to AUC calculations. This adds to that variability of the calculated numbers.
structure (smiles),measurement,setting,value
"CC[C@H](C)[C@H](NC(=O)[C@H](CCC(=O)O)NC(=O)[C@H](CO)NC(=O)[C@@H](NC(=O)[C@@H](N)CO)C(C)C)C(=O)N[C@@H](CCC(N)=O)C(=O)N[C@@H](CC(C)C)C(=O)N[C@@H](CCSC)C(=O)N[C@@H](Cc1c[nH]cn1)C(=O)N[C@@H](CC(N)=O)C(=O)N[C@@H](CC(C)C)C(=O)NCC(=O)N[C@@H](CCCCN)C(=O)N[C@@H](Cc1c[nH]cn1)C(=O)N[C@@H](CC(C)C)C(=O)N[C@@H](CC(N)=O)C(=O)N[C@@H](CO)C(=O)N[C@@H](CCSC)C(=O)N[C@@H](CCC(=O)O)C(=O)N[C@@H](CCCN=C(N)N)C(=O)N[C@H](C(=O)N[C@H]1CCC(=O)NCCCC[C@@H](C(=O)N[C@@H](CC(C)C)C(=O)N[C@@H](CC(C)C)C(=O)N[C@@H](CCC(N)=O)C(=O)N[C@@H](CC(=O)O)C(=O)N[C@H](C(N)=O)C(C)C)NC(=O)[C@H](CCCN=C(N)N)NC(=O)[C@H](CC(C)C)NC(=O)[C@H](Cc2c[nH]c3ccccc23)NC1=O)C(C)C [Ostabolin-C, [Leu^27]cyclo[Glu^22-Lys^26]-PTH-(1-31)-NH2] (H-SVSEIQLMHNLGKHLNSMERVEWLRKLLQDV-NH2; lactam 22-26)",AUC(0-t),"female, sc, 45 ug, Dose 45, mean of Baseline and Week 12 data, read-out: AUC(0-4)",0.22 ng·h/mL
same,AUC(0-t),"female, sc, 45 ug, Dose 45, mean of Baseline and Week 12 data, read-out: AUC(0-24)",0.296 ng·h/mL
same,Cmax,"female, sc, 45 ug, Dose 45, mean of Baseline and Week 12 data",0.12 ng/mL
same,Tmax,"female, sc, 45 ug, Dose 45, mean of Baseline and Week 12 data, read-out: Tmax",22.8 min
same,AUC(0-t),"female, sc, 45 ug, Week 12, 45 ug, AVG, read-out: AUC(0-4)",0.0995 ng·h/mL
same,AUC(0-t),"female, sc, 45 ug, Week 12, 45 ug, AVG, read-out: AUC(0-24)",0.171 ng·h/mL
same,Cmax,"female, sc, 45 ug, Week 12, 45 ug, AVG",0.0669 ng/mL
same,Tmax,"female, sc, 45 ug, Week 12, 45 ug, AVG, read-out: Tmax",15 min
same,Tmax,"female, sc, all doses, Baseline and Week 12 (STD 0.21 hrs), read-out: Tmax, overall average",20.4 min
same,AUC(0-t),"female, subcutaneous, 7.5 ug, Baseline, 7.5 ug, AVG, read-out: AUC(0-4)",0.0388 ng·h/mL
same,AUC(0-t),"female, subcutaneous, 7.5 ug, Baseline, 7.5 ug, AVG, read-out: AUC(0-24)",0.0425 ng·h/mL
same,Cmax,"female, subcutaneous, 7.5 ug, Baseline, 7.5 ug, AVG",0.0272 ng/mL
same,AUC(0-t),"female, subcutaneous, 15 ug, Baseline, 15 ug, AVG, read-out: AUC(0-4)",0.0742 ng·h/mL
same,AUC(0-t),"female, subcutaneous, 15 ug, Baseline, 15 ug, AVG, read-out: AUC(0-24)",0.0742 ng·h/mL
same,Cmax,"female, subcutaneous, 15 ug, Baseline, 15 ug, AVG",0.0449 ng/mL
same,Tmax,"female, subcutaneous, 15 μg, Dose 15, mean of Baseline and Week 12 data, read-out: Tmax",19.8 min
same,Tmax,"female, subcutaneous, 15 ug, Week 12, 15 ug, AVG, read-out: Tmax",19.8 min
same,AUC(0-t),"female, subcutaneous, 45 ug, Baseline, 45 ug, AVG, read-out: AUC(0-4)",0.341 ng·h/mL
same,AUC(0-t),"female, subcutaneous, 45 ug, Baseline, 45 ug, AVG, read-out: AUC(0-24)",0.42 ng·h/mL
same,Cmax,"female, subcutaneous, 45 ug, Baseline, 45 ug, AVG",0.174 ng/mL
same,Cmax,"subcutaneous, 7.5 ug, Baseline, 7.5 ug, individual subjects",0.0207 ng/mL
same,Cmax,"subcutaneous, 7.5 ug, Week 12, 7.5 ug, individual subjects",0.021 ng/mL
same,Tmax,"subcutaneous, 7.5 ug, Week 12, 7.5 ug, individual subjects, read-out: Tmax",15 min
same,AUC(0-t),"subcutaneous, 15 ug, Baseline, 15 ug, individual subjects, read-out: AUC(0-4)",0.066 ng·h/mL
same,AUC(0-t),"subcutaneous, 15 ug, Baseline, 15 ug, individual subjects, read-out: AUC(0-24)",0.066 ng·h/mL
same,Cmax,"subcutaneous, 15 ug, Baseline, 15 ug, individual subjects",0.0306 ng/mL
same,Tmax,"subcutaneous, 15 ug, Baseline, 15 ug, individual subjects, read-out: Tmax",30 min
same,Tmax,"subcutaneous, 15 ug, Week 12, 15 ug, individual subjects, read-out: Tmax",15 min
same,AUC(0-t),"subcutaneous, 30 ug, Baseline, 30 ug, individual subject, read-out: AUC(0-4)",0.104 ng·h/mL
same,AUC(0-t),"subcutaneous, 30 ug, Baseline, 30 ug, individual subject, read-out: AUC(0-24)",0.104 ng·h/mL
same,Cmax,"subcutaneous, 30 ug, Baseline, 30 ug, individual subject",0.0639 ng/mL
same,Tmax,"subcutaneous, 30 ug, Baseline, 30 ug, individual subject, read-out: Tmax",30 min
same,AUC(0-t),"subcutaneous, 30 ug, Week 12, 30 ug, individual subjects, read-out: AUC(0-24)",0.154 ng·h/mL
same,Cmax,"subcutaneous, 30 ug, Week 12, 30 ug, individual subjects",0.0762 ng/mL
same,Tmax,"subcutaneous, 30 ug, Week 12, 30 ug, individual subjects, read-out: Tmax",15 min
same,AUC(0-t),"subcutaneous, 45 ug, Baseline, 45 ug, individual subjects, read-out: AUC(0-4)",0.337 ng·h/mL
same,AUC(0-t),"subcutaneous, 45 ug, Baseline, 45 ug, individual subjects, read-out: AUC(0-24)",0.47 ng·h/mL
same,Tmax,"subcutaneous, 45 ug, Baseline, 45 ug, individual subjects, read-out: Tmax",30 min
same,AUC(0-t),"subcutaneous, 45 ug, Week 12, 45 ug, individual subject, read-out: AUC(0-4)",0.128 ng·h/mL
same,AUC(0-t),"subcutaneous, 45 ug, Week 12, 45 ug, individual subject, read-out: AUC(0-24)",0.128 ng·h/mL
same,Cmax,"subcutaneous, 45 ug, Week 12, 45 ug, individual subject",0.0871 ng/mL
same,Tmax,"subcutaneous, 45 ug, Week 12, 45 ug, individual subject, read-out: Tmax",15 min
